# Publication PMC6155239, “Targeting PFKFB3 radiosensitizes cancer cells and suppresses homologous recombination” (Nature Communications, 2018)
# What was measured:
# [1] = system: intracellular F-2,6-P2 levels; assay: Intracellular F-2,6-P2 quantification (van Schaftingen assay); assay type: cell-based; conditions: pancreatic, gastric and colon cancer cell lines
# Method: Quantification of F-2,6-P2 was performed as described by Van Schaftingen et al.[34]. The assay is based on the potent activation of pyrophosphate-dependent phosphofructokinase-1 (PPi-PFK) from potato tubers by F-2,6-P2. The use of a series of coupled enzymes leads to a consumption of nicotinamide adenine dinucleotide (NADH) that can be followed spectrophotometrically. PANC-1, NUGC-3, SW620, or MIA PaCa-2 cells were seeded at a density of 2.5 × 10^4–3.5 × 10^4 cells per well (96-well, CLS3595, Sigma-Aldrich) and incubated overnight at 37 °C and 5% CO2. […] Plates stored at −20 °C were thawed and the F-2,6-P2 quantification was initiated by transferring 40 µL from each well of the NUNC plate to the corresponding position in a transparent 96-well SpectraPlate-MB (PerkinElmer). In order to ensure that all F-2,6-P2 measured values were within the linear range of response (between 0 and 1 nM final concentration of F-2,6-P2[34]), the same sample volume of an in-house produced F-2,6-P2 standard was included on each plate. […] The coupled enzymatic reaction was allowed to proceed for 45 min at room temperature and the absorbance at 340 nm was continuously measured every 30 s (SpectraMax plate reader, Molecular Devices). The measured absorbance was proportional to the concentration of NADH, which in turn was proportional to the levels of F-2,6-P2 within the linear range. […]
# [2] = system: 97 kinases of the scanEDGE set; assay: DiscoveRx KINOMEscan scanEDGE panel; assay type: binding; conditions: 2 µM
# [3] = molecular target: PFKFB3 (Homo sapiens, UniProt Q16875); assay: ADP-Glo kinase activity assay, PFKFB3; assay type: biochemical
# Method: The kinase activity of the bi-functional enzyme was quantified based on the production of ADP and F-2,6-P2 from ATP by ADP-GloTM Kinase Assay (Promega). The assay was performed in two steps; first, after the kinase reaction, an equal volume of ADP-GloTM Reagent was added to terminate the kinase reaction and deplete the remaining ATP. Second, the Kinase Detection Reagent was added to simultaneously convert ADP to ATP and allow the newly synthesized ATP to be measured using a luciferase/luciferin reaction. The light generated was measured using a luminescence counter (1450 MicroBeta TriLux). The assay was performed in white 384-well plates (OptiPlate, 6007299, PerkinElmer) by consecutive additions of a test compound solution (0.1 µL, serial diluted in DMSO from compound DMSO stock solution and dispensed by acoustic dispensing from UV-star 384-well plate 7360153, VWR), enzyme solution (5 µL) and substrate (fructose-6-phosphate (F6P) and adenosine-5′-triphosphate (ATP)) containing solution (5 µL). […] Four reference dose–response curves, one of them being the QC compound, were included and serial diluted as the test compounds. The final concentrations of all reagents per well were 50 mM Tris–HCl at pH 8.0, 10 mM MgCl2, 5 mM NaPi at pH 8.0, 81.48 nM PFKFB3 or 145 nM PFKFB4, 8 µM ATP, 100 µM F6P (acid treated and then neutralized to remove any contaminating F-2,6-P2[34]), 0.005% Tween-20 and 1 mM dithiothreitol. Enzyme, compounds, and controls were pre-incubated at room temperature for 15 min before the addition of substrate solution. The enzymatic reaction was allowed to proceed for 20 min and the reaction was terminated by the addition of ADP-GloTM Reagent (10 µL) to all wells followed by 40 min incubation at room temperature. […] The inhibitory potency or IC50 values of test compounds on the kinase activity of the enzymes were calculated using a four-parameter model (model 205) in XLfit (IDBS ActivityBase XE Runner).
# [4] = molecular target: T1, CDK7 (Homo sapiens, UniProt P50613); assay: KINOMEscan; assay type: binding; conditions: 2000 nM; read-out: Percent Control
# T1 construct: purchased DiscoverX (Eurofins) KINOMEscan / scanEDGE, inferred from the naming style
# T1 sequence (P50613 whole entry): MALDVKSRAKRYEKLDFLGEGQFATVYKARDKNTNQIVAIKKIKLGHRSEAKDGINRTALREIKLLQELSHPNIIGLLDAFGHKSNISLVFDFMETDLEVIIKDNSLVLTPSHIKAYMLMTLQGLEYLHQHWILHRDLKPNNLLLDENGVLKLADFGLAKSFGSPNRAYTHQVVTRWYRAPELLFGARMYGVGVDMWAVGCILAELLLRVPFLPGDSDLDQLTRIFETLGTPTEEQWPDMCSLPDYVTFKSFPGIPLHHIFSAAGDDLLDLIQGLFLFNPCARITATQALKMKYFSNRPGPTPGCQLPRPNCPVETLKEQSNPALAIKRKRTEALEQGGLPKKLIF
# Sequence of PFKFB3 (Q16875 whole entry): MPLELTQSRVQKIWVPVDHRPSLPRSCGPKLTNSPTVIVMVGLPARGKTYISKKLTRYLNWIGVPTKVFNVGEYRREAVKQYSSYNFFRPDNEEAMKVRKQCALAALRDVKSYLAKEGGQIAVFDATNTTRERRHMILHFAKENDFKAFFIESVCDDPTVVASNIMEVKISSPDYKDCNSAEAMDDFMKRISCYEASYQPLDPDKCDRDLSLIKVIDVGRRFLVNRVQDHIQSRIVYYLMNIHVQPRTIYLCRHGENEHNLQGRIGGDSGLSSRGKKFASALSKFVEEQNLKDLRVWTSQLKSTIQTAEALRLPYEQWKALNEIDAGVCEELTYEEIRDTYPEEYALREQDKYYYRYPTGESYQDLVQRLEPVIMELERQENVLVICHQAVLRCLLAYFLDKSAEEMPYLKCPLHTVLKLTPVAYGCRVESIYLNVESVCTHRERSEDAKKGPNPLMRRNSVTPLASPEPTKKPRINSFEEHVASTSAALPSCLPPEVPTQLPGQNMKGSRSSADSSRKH
inhibition of recombinant PFKFB3 kinase activity (in words) ([3]; in vitro enzymatic assay),SMILES,"potency on intracellular F-2,6-P2 levels (in words) [1]",binding to the 97 targets of the scanEDGE set [2],IC50 ([3]; ADP-GLO assay),remaining binding at 2 µM [4]
largely inactive,"O=C(OCCO)c1ccc(NS(=O)(=O)c2cccc(-c3cc(F)ccc3O)c2)cc1O [KAN0438757, 2-Hydroxyethyl-4-{[(5′-fluoro-2′-hydroxybiphenyl-3-yl)sulfonyl]amino}-2-hydroxybenzoate]",sub-µM IC50 values,no significant binding,–,–
–,"O=C(O)c1ccc(NS(=O)(=O)c2cccc(-c3cc(F)ccc3O)c2)cc1O [KAN0438241, 4-{[(5′-Fluoro-2′-hydroxybiphenyl-3-yl)sulfonyl]amino}-2-hydroxybenzoic acid]",low µM potency,no significant binding,190 nM,93%
